Assay results: patent US12233073B2, “Skin care formulations and skin cancer treatment” (Regents of the University of Minnesota, priority 2017, dated 2025)

test system: skin of SKH-1 hairless mice; test: H&E staining of skin of mice treated with anti-sUV agents; format: in vivo, mouse; details: solar UV-exposed groups G13-G24
Description: FIG. 40 is a photograph comparing H&E (hematoxylin and eosin) stained tissue sample of mice exposed to solar ultraviolet and treated with anti-sUV agents and mice unexposed to solar ultraviolet. H&E staining can show skin damage (see TABLE 5 for group identification). […] None of the compounds in the absence of solar UV caused any damage and none had any adverse effect on skin thickness. G11 and G12 are the positive controls, being groups treated with solar UV without or with vehicle (cream).

Row | Compound | H&E staining: epidermal thickening and skin damage
1 | CC1CC(OC(=O)c2ccccc2O)CC(C)(C)C1 (stereo not shown) [Homosalate] | intense damage
2 | CCCCC(CC)COC(=O)C=Cc1ccc(OC)cc1 (stereo not shown) [Octinoxate] | epidermal thickening but less damage
3 | CCCCC(CC)COC(=O)c1ccccc1O (stereo not shown) [Octisalate] | epidermal thickening and skin damage
4 | CCCCC(CC)COC(=O)C(C#N)=C(c1ccccc1)c1ccccc1 (stereo not shown) [Octocrylene] | epidermal thickening and skin damage
5 | COc1ccc(C(=O)c2ccccc2)c(O)c1 [Oxybenzone] | epidermal thickening but less damage
6 | [O]=[Zn] [Zinc oxide] | most protected
7 | Titanium dioxide | epidermal thickening and skin damage

test system: nuclear factor kappa B (NF-κB) pathway; test: Cell-based assay of the nuclear factor kappa B (NF-κB) pathway; details: final dose 10 μg/ml
Protocol: The effect of adding anti-aging and/or anti-wrinkling compounds to the skin care formulation of EXAMPLE 18 on nuclear factor kappa B (NF-κB) mediated-inflammation was evaluated.
A cell-based assay was performed to determine the effective of each of these compounds. The assay involved the effect of each compound on the nuclear factor kappa B (NF-κB) pathway. The inhibition of NF-κB is indicative of a protective effect against aging and wrinkling.

Row | Compound | % inhibition of NF-κB
8 | O=c1c(O)c(-c2ccc(O)cc2)oc2c(O)c(O)cc(O)c12 [HI-12, herbacetin] | none

same assay, conditions: final dose 10 μg/ml; read-out: % inhibition of NF-κB

Row | Compound | inhibition at 10 µg/mL [%]
9 | O=c1cc(-c2ccc(O)c(O)c2)oc2cc(O)cc(O)c12 [HI-11, luteolin] | 54

same assay, conditions: final dose 50 μg/ml

Row | Compound | % inhibition of NF-κB
10 | O=c1c(O)c(-c2ccc(O)cc2)oc2c(O)c(O)cc(O)c12 [HI-12, herbacetin] | none

same assay, conditions: final dose 50 μg/ml; read-out: % inhibition of NF-κB

Row | Compound | inhibition at 50 µg/mL [%]
11 | O=c1cc(-c2ccc(O)c(O)c2)oc2cc(O)cc(O)c12 [HI-11, luteolin] | > 90

same assay, conditions: final dose 100 μg/ml; read-out: % inhibition of NF-κB

Row | Compound | inhibition at 100 µg/mL [%]
12 | O=c1cc(-c2ccc(O)c(O)c2)oc2cc(O)cc(O)c12 [HI-11, luteolin] | > 90
13 | O=c1c(O)c(-c2ccc(O)cc2)oc2c(O)c(O)cc(O)c12 [HI-12, herbacetin] | 49

same assay, conditions: one rating per compound

Row | Compound | Rating (inhibition of NF-κB)
14 | O=c1cc(-c2ccc(O)c(O)c2)oc2cc(O)cc(O)c12 [HI-11, luteolin] | ** (medium activity (31-55%))
15 | O=c1c(O)c(-c2ccc(O)cc2)oc2c(O)c(O)cc(O)c12 [HI-12, herbacetin] | none

test system: SSL-induced skin tumors in SKH-1 hairless mice; test: not given; details: SSL-exposed; compound in cream, percent per TABLE 5
Protocol: The effectiveness of different candidate compounds in preventing sUV-induced cancer was evaluated. SKH-1 hairless mice (Charles River, Burlington, Massachusetts) were treated with formulations including one or more candidate compounds and exposed to SSL (solar simulated light). Female mice aged 5-6 weeks at the beginning of the study were used. The mice were exposed to SSL three times a week for 15 weeks from the beginning of the study. At week 1, the SSL dose included 37 kJ/m^2 UVA and 1.8 kJ/m^2 UVB three times per week. […] At week 6, the dose included 60 kJ/m^2 UVA and 2.9 kJ/m^2 UVB and this dose was maintained until week 15 at which time SSL exposure was stopped. Each mouse received a topical application (on the dorsal skin surface posterior to the base of the neck and anterior to the base of the tail) of one or more candidate compounds in a base cream one hour before SSL exposure. 15 weeks onwards, the mice were no longer exposed to SSL but the topical application of cream with sunscreen compounds was continued until 30 weeks. Control mice received topical application of cream with sunscreen compounds but no SSL.
Tumors were counted by sight. The dimensions of each tumor were measured using a digital caliper. Tumor volume (mm^3) was determined as (length×width^2)×0.52, where the length and width were measured in mm. […] Average or total tumor volumes were compared between vehicle (cream)-treated mice exposed to SSL and compound in cream-treated mice exposed to SSL.

Row | Compound | % Effective Protection (% reduction in tumor volume vs SSL with cream only) [%]
16 | CC1CC(OC(=O)c2ccccc2O)CC(C)(C)C1 (stereo not shown) [Homosalate] | 83.6
17 | CCCCC(CC)COC(=O)C=Cc1ccc(OC)cc1 (stereo not shown) [Octinoxate] | 93.9
18 | CCCCC(CC)COC(=O)c1ccccc1O (stereo not shown) [Octisalate] | 70.1
19 | CCCCC(CC)COC(=O)C(C#N)=C(c1ccccc1)c1ccccc1 (stereo not shown) [Octocrylene] | 90.3
20 | COc1ccc(C(=O)c2ccccc2)c(O)c1 [Oxybenzone] | 91.2
21 | Titanium dioxide | 89.2

same assay, conditions: SSL-exposed; compound in cream, percent per TABLE 5; 15 mice

Row | Compound | % Mice with tumor [%] | % Mortality | Average volume of tumors [mm^3] | Avg. no. of tumors | Number of dead mice | Total no. of tumors | Total volume of tumors [mm^3]
22 | CC1CC(OC(=O)c2ccccc2O)CC(C)(C)C1 (stereo not shown) [Homosalate] | 80 | 6.7% | 27.7 | 2.6 | 1 | 39 | 415.7
23 | CCCCC(CC)COC(=O)C=Cc1ccc(OC)cc1 (stereo not shown) [Octinoxate] | 80 | 13.3% | 10.4 | 1.4 | 2 | 21 | 156.02
24 | CCCCC(CC)COC(=O)c1ccccc1O (stereo not shown) [Octisalate] | 100 | 66.7% | 50.6 | 2.6 | 10 | 39 | 758.4
25 | CCCCC(CC)COC(=O)C(C#N)=C(c1ccccc1)c1ccccc1 (stereo not shown) [Octocrylene] | 66.7 | 0/0% | 16.5 | 1.7 | 0/0 | 25 | 246.7
26 | COc1ccc(C(=O)c2ccccc2)c(O)c1 [Oxybenzone] | 86.7 | 6.7% | 14.3 | 2.3 | 1 | 35 | 213.7
27 | [O]=[Zn] [Zinc oxide] | 6.7 | 0/0% | 0.8 | 0.13 | 0/0 | 2 | 11.2
28 | Titanium dioxide | 100 | 13.3% | 18.4 | 2.6 | 2 | 39 | 275.6

same assay, conditions: female, SKH-1 hairless, mouse, in vivo, 30 weeks

Row | Compound | % Mice with tumor [%]
29 | CC1CC(OC(=O)c2ccccc2O)CC(C)(C)C1 (stereo not shown) [Homosalate] | 0
30 | CCCCC(CC)COC(=O)C=Cc1ccc(OC)cc1 (stereo not shown) [Octinoxate] | 0
31 | CCCCC(CC)COC(=O)c1ccccc1O (stereo not shown) [Octisalate] | 0
32 | CCCCC(CC)COC(=O)C(C#N)=C(c1ccccc1)c1ccccc1 (stereo not shown) [Octocrylene] | 0
33 | COc1ccc(C(=O)c2ccccc2)c(O)c1 [Oxybenzone] | 0

same assay, conditions: mouse, in vivo

Row | Compound | % Mice with tumor [%]
34 | Titanium dioxide | 0

same assay, conditions: no SSL exposure; compound in cream, percent per TABLE 5

Row | Compound | % Mortality/Number of dead mice | Total/Average volume of tumors | Total/Avg. no. of tumors
35 | CC1CC(OC(=O)c2ccccc2O)CC(C)(C)C1 (stereo not shown) [Homosalate] | 0 | 0 | 0
36 | CCCCC(CC)COC(=O)C=Cc1ccc(OC)cc1 (stereo not shown) [Octinoxate] | 0 | 0 | 0
37 | CCCCC(CC)COC(=O)c1ccccc1O (stereo not shown) [Octisalate] | 0 | 0 | 0
38 | CCCCC(CC)COC(=O)C(C#N)=C(c1ccccc1)c1ccccc1 (stereo not shown) [Octocrylene] | 0 | 0 | 0
39 | COc1ccc(C(=O)c2ccccc2)c(O)c1 [Oxybenzone] | 0 | 0 | 0
40 | [O]=[Zn] [Zinc oxide] | 0 | 0 | 0
41 | Titanium dioxide | 0 | 0 | 0

same assay, conditions: no SSL exposure; compound in cream, percent per TABLE 5; 30 weeks

Row | Compound | % Mice with tumor [%]
42 | [O]=[Zn] [Zinc oxide] | 0

test system: UV-induced ROS; test: Inhibition of the production of UV-induced reactive oxygen species (ROS); format: cell-based; details: final dose 10 μg/ml; read-out: % inhibition of UV-induced ROS
Protocol: The effect of the compounds of EXAMPLE 20 on inhibition of the production of reactive oxygen species (ROS), which can damage skin cells, was evaluated.

Row | Compound | inhibition at 10 µg/mL [%]
43 | O=c1cc(-c2ccc(O)c(O)c2)oc2cc(O)cc(O)c12 [HI-11, luteolin] | > 70
44 | O=c1c(O)c(-c2ccc(O)cc2)oc2c(O)c(O)cc(O)c12 [HI-12, herbacetin] | ~50

test system: collagen 1A; test: Induction of collagen 1A; format: cell-based; details: final dose 10 μg/ml
Protocol: (§1) Higher elastin and collagen activity is indicative of anti-wrinkling or anti-aging effects. Activation of the antioxidant response element (ARE) pathway was also evaluated. The NF-E2-related factor (Nrf2) is a critical transcription factor in oxidative stress signaling. Nrf2 binds to the ARE and serves as a master regulator in cellular defense pathways. The ARE pathway mediates the transcriptional induction of a battery of genes that help to protect the cells against oxidative damage. Activation of the ARE promoter leads to more endogenous antioxidants and cell detoxification.

Row | Compound | fold induction at 10 µg/mL
45 | O=c1cc(-c2ccc(O)c(O)c2)oc2cc(O)cc(O)c12 [HI-11, luteolin] | 2
46 | O=c1c(O)c(-c2ccc(O)cc2)oc2c(O)c(O)cc(O)c12 [HI-12, herbacetin] | < 1.3

same assay, conditions: final dose 50 μg/ml

Row | Compound | fold induction at 50 µg/mL
47 | O=c1cc(-c2ccc(O)c(O)c2)oc2cc(O)cc(O)c12 [HI-11, luteolin] | < 1.3
48 | O=c1c(O)c(-c2ccc(O)cc2)oc2c(O)c(O)cc(O)c12 [HI-12, herbacetin] | < 1.3

same assay, conditions: final dose 100 μg/ml

Row | Compound | fold induction at 100 µg/mL
49 | O=c1cc(-c2ccc(O)c(O)c2)oc2cc(O)cc(O)c12 [HI-11, luteolin] | < 1.3
50 | O=c1c(O)c(-c2ccc(O)cc2)oc2c(O)c(O)cc(O)c12 [HI-12, herbacetin] | < 1.3

same assay, conditions: second rating in cell

Row | Compound | Rating (Collagen 1A)
51 | O=c1cc(-c2ccc(O)c(O)c2)oc2cc(O)cc(O)c12 [HI-11, luteolin] | ****, ****, **** (very high activity (>76%))
52 | O=c1c(O)c(-c2ccc(O)cc2)oc2c(O)c(O)cc(O)c12 [HI-12, herbacetin] | none

test system: elastin; test: Induction of elastin; format: cell-based; details: final dose 10 μg/ml
Protocol: as §1

Row | Compound | fold induction at 10 µg/mL
53 | O=c1cc(-c2ccc(O)c(O)c2)oc2cc(O)cc(O)c12 [HI-11, luteolin] | 1.8
54 | O=c1c(O)c(-c2ccc(O)cc2)oc2c(O)c(O)cc(O)c12 [HI-12, herbacetin] | 2

same assay, conditions: final dose 50 μg/ml

Row | Compound | fold induction at 50 µg/mL
55 | O=c1cc(-c2ccc(O)c(O)c2)oc2cc(O)cc(O)c12 [HI-11, luteolin] | < 1.3
56 | O=c1c(O)c(-c2ccc(O)cc2)oc2c(O)c(O)cc(O)c12 [HI-12, herbacetin] | < 1.3

same assay, conditions: final dose 100 μg/ml

Row | Compound | fold induction at 100 µg/mL
57 | O=c1cc(-c2ccc(O)c(O)c2)oc2cc(O)cc(O)c12 [HI-11, luteolin] | < 1.3
58 | O=c1c(O)c(-c2ccc(O)cc2)oc2c(O)c(O)cc(O)c12 [HI-12, herbacetin] | 2

test system: antioxidant response element (ARE) pathway; test: Activation of the antioxidant response element (ARE) pathway; format: cell-based; details: final dose 10 μg/ml
Protocol: as §1

Row | Compound | fold induction at 10 µg/mL
59 | O=c1cc(-c2ccc(O)c(O)c2)oc2cc(O)cc(O)c12 [HI-11, luteolin] | 1.5
60 | O=c1c(O)c(-c2ccc(O)cc2)oc2c(O)c(O)cc(O)c12 [HI-12, herbacetin] | < 1.3

same assay, conditions: final dose 50 μg/ml

Row | Compound | fold induction at 50 µg/mL
61 | O=c1cc(-c2ccc(O)c(O)c2)oc2cc(O)cc(O)c12 [HI-11, luteolin] | 5
62 | O=c1c(O)c(-c2ccc(O)cc2)oc2c(O)c(O)cc(O)c12 [HI-12, herbacetin] | < 1.3

same assay, conditions: final dose 100 μg/ml

Row | Compound | fold induction at 100 µg/mL
63 | O=c1cc(-c2ccc(O)c(O)c2)oc2cc(O)cc(O)c12 [HI-11, luteolin] | 2
64 | O=c1c(O)c(-c2ccc(O)cc2)oc2c(O)c(O)cc(O)c12 [HI-12, herbacetin] | < 1.3

same assay, conditions: third rating in cell

Row | Compound | Rating (ARE)
65 | O=c1cc(-c2ccc(O)c(O)c2)oc2cc(O)cc(O)c12 [HI-11, luteolin] | ****, ****, **** (very high activity (>76%))
66 | O=c1c(O)c(-c2ccc(O)cc2)oc2c(O)c(O)cc(O)c12 [HI-12, herbacetin] | none

test system: Ki-67; test: Ki-67 immunohistological staining of skin of mice treated with anti-sUV agents; format: in vivo, mouse; details: solar UV-exposed groups
Description: FIG. 41 is a photograph comparing Ki-67 immunohistological-stained tissue samples of mice exposed to solar ultraviolet and treated with anti-sUV agents and mice unexposed to solar ultraviolet.

Row | Compound | Ki-67 staining: abnormal cell proliferation
67 | CC1CC(OC(=O)c2ccccc2O)CC(C)(C)C1 (stereo not shown) [Homosalate] | extensive abnormal proliferation
68 | [O]=[Zn] [Zinc oxide] | least amount of abnormal proliferation
